Structures can show the parent of a compound that is named as a salt.
What was measured:
SK-MEL-28 cells = assay: Cytotoxicity in low glucose condition (MTT); format: cell-based; details: Homo sapiens, SK-MEL-28, 0.75 mM glucose, 72 hours, read-out: SK-MEL-28 0.75 mM glucose Cell viability (IC50 ia)
A549 cell = assay: In vitro combination study with GDC0941 on A549 cell; format: cell-based
Procedure: A549, H1975 (CRL5908, ATCC) or U937 cell (CRL1593.2™, ATCC) lines were cultured in RPMI 1640 media (Lifetechnologies, CA) with supplement of 10% FBS and antibiotic-antimycotic (Lifetechnologies, CA). Dasatinib (Combi-Blocks, San Diego, Calif.) is Bcr-Abl-tyrosine kinase inhibitor and Src family tyrosine kinase inhibitor approved for CML treatment. GDC094 (Selleckchem, Houston, Tex.) is a pan-PI3K inhibitor and effective in various cancer cells. H1975 or A549 cells were dissociated from culture plate using 0.5% trypsin-EDTA (Lifetechnologies, CA) and were suspended. U937 cells were spun down using centrifugation. […]
Among four concentrations of the compounds of present invention, the highest concentration was set to IC80 and the lowest concentration was approximately IC30. […] 100 μl of DMSO was added after removing MTT solution from each well, and were read by VICTOR X3 Multilabel Counter at the wavelength of 550 nm.
For the analysis of U937 cell viability, 20 μl of Celltiter96® AQueous one solution (MTS, Promega, Madison, Wis.) were added to each well, and plates were incubated at 37° C. and 5% CO2. After 2 hours later, plates read by VICTOR X3 Multilabel Counter at the wavelength of 490 nm. The combination index (CI value) was calculated using Calcusyn (Biosoft, UK).

`N=C(N)NC(=N)NCCc1ccc(Cl)c(Cl)c1` [Example 1, N-1-(3,4-dichloro)phenethylbiguanide hydrochloride] was tested, and the IC50 (SK-MEL-28 cells) was 5 to 10 µM and the “CI value (combination index)” value (A549 cell) was “lower than 1”.

Source: US11465989B2, “Guanidine compounds and use thereof” (IMMUNOMET THERAPEUTICS INC., priority 2014, dated 2022)
